{
  "source": "ChEMBL document CHEMBL4368888",
  "about": "“Design, synthesis and biological evaluation of tryptamine salicylic acid derivatives as potential antitumor agents” (Medchemcomm, 2019)",
  "key": {"[1]": {"test_system": "MGC-803", "assay": "Cell cycle arrest in human MGC803 cells assessed as accumulation of cells at G0/G1 phase at 20 uM after 24 hrs by propidium iodide staining-based flow cytometric analysis (reference value: 51.37%)", "assay_type": "functional"}, "[2]": {"test_system": "MGC-803", "assay": "Induction of apoptosis in human MGC803 cells assessed as early apoptotic cells at 10 uM after 24 hrs by Annexin V-FITC/propidium iodide staining-based flow cytometric analysis (reference value: 1.04%)", "assay_type": "functional"}, "[3]": {"test_system": "A549", "assay": "Antiproliferative activity against human A549 cells after 48 hrs by MTT assay", "assay_type": "functional, cell-based", "settings": "A549, 48 h"}, "[4]": {"test_system": "MGC-803", "assay": "Induction of apoptosis in human MGC803 cells assessed as viable cells at 20 uM after 24 hrs by Annexin V-FITC/propidium iodide staining-based flow cytometric analysis (reference value: 94.2%)", "assay_type": "functional", "settings": "MGC-803, 24 h, read-out: Activity"}, "[5]": {"test_system": "MGC-803", "assay": "Cell cycle arrest in human MGC803 cells assessed as accumulation of cells at G2/M phase at 40 uM after 24 hrs by propidium iodide staining-based flow cytometric analysis (reference value: 9.86%)", "assay_type": "functional"}, "[6]": {"test_system": "MCF7", "assay": "Antiproliferative activity against human MCF7 cells after 48 hrs by MTT assay", "assay_type": "functional, cell-based", "settings": "MCF7, 48 h"}, "[7]": {"test_system": "MGC-803", "assay": "Induction of apoptosis in human MGC803 cells assessed as necrotic cells at 10 uM after 24 hrs by Annexin V-FITC/propidium iodide staining-based flow cytometric analysis (reference value: 0.556%)", "assay_type": "functional"}, "[8]": {"test_system": "MGC-803", "assay": "Cell cycle arrest in human MGC803 cells assessed as accumulation of cells at G0/G1 phase at 60 uM after 24 hrs by propidium iodide staining-based flow cytometric analysis (reference value: 51.37%)", "assay_type": "functional"}, "[9]": {"test_system": "MGC-803", "assay": "Effect on HIF-1 expression levels in human MGC803 cells at 10 to 40 uM in presence of 100 uM CoCl2 after 24 hrs by Western blot analysis", "assay_type": "functional, cell-based"}, "[10]": {"test_system": "MGC-803", "assay": "Antimigratory activity against human MGC803 cells after 48 hrs by scratch wound-healing assay", "assay_type": "functional, cell-based"}, "[11]": {"test_system": "MGC-803", "assay": "Inhibition of colony formation in human MGC803 cells assessed as reduction in viable cells at 40 uM incubated for 9 days where culture medium was changed every 3 days by crystal violet staining-based assay", "assay_type": "functional"}, "[12]": {"test_system": "MGC-803", "assay": "Induction of apoptosis in human MGC803 cells assessed as early apoptotic cells at 30 uM after 24 hrs by Annexin V-FITC/propidium iodide staining-based flow cytometric analysis (reference value: 1.04%)", "assay_type": "functional"}, "[13]": {"test_system": "MGC-803", "assay": "Induction of apoptosis in human MGC803 cells assessed as viable cells at 30 uM after 24 hrs by Annexin V-FITC/propidium iodide staining-based flow cytometric analysis (reference value: 94.2%)", "assay_type": "functional", "settings": "MGC-803, 24 h, read-out: Activity"}, "[14]": {"test_system": "MGC-803", "assay": "Inhibition of colony formation in human MGC803 cells assessed as reduction in viable cells incubated for 9 days where culture medium was changed every 3 days by crystal violet staining-based assay", "assay_type": "functional, cell-based"}, "[15]": {"test_system": "MGC-803", "assay": "Induction of apoptosis in human MGC803 cells assessed as viable cells at 10 uM after 24 hrs by Annexin V-FITC/propidium iodide staining-based flow cytometric analysis (reference value: 94.2%)", "assay_type": "functional", "settings": "MGC-803, 24 h, read-out: Activity"}, "[16]": {"test_system": "MGC-803", "assay": "Induction of apoptosis in human MGC803 cells assessed as early apoptotic cells at 20 uM after 24 hrs by Annexin V-FITC/propidium iodide staining-based flow cytometric analysis (reference value: 1.04%)", "assay_type": "functional"}, "[17]": {"test_system": "MGC-803", "assay": "Induction of apoptosis in human MGC803 cells assessed as late apoptotic cells at 10 uM after 24 hrs by Annexin V-FITC/propidium iodide staining-based flow cytometric analysis (reference value: 4.17%)", "assay_type": "functional"}, "[18]": {"test_system": "MGC-803", "assay": "Cell cycle arrest in human MGC803 cells assessed as accumulation of cells at G0/G1 phase at 40 uM after 24 hrs by propidium iodide staining-based flow cytometric analysis (reference value: 51.37%)", "assay_type": "functional"}, "[19]": {"test_system": "MGC-803", "assay": "Cell cycle arrest in human MGC803 cells assessed as accumulation of cells at S phase at 40 uM after 24 hrs by propidium iodide staining-based flow cytometric analysis (reference value: 37.1%)", "assay_type": "functional"}, "[20]": {"test_system": "MGC-803", "assay": "Cell cycle arrest in human MGC803 cells assessed as accumulation of cells at G2/M phase at 60 uM after 24 hrs by propidium iodide staining-based flow cytometric analysis (reference value: 9.86%)", "assay_type": "functional"}, "[21]": {"test_system": "MGC-803", "assay": "Cell cycle arrest in human MGC803 cells assessed as accumulation of cells at G2/M phase after 24 hrs by propidium iodide staining-based flow cytometric analysis", "assay_type": "functional"}, "[22]": {"test_system": "MGC-803", "assay": "Induction of apoptosis in human MGC803 cells assessed as late apoptotic cells at 30 uM after 24 hrs by Annexin V-FITC/propidium iodide staining-based flow cytometric analysis (reference value: 4.17%)", "assay_type": "functional"}, "[23]": {"test_system": "MGC-803", "assay": "Cell cycle arrest in human MGC803 cells assessed as accumulation of cells at G2/M phase at 20 uM after 24 hrs by propidium iodide staining-based flow cytometric analysis (reference value: 9.86%)", "assay_type": "functional"}, "[24]": {"test_system": "MGC-803", "assay": "Induction of apoptosis in human MGC803 cells after 24 hrs by Annexin V-FITC/propidium iodide staining-based flow cytometric analysis", "assay_type": "functional, cell-based"}, "[25]": {"test_system": "HeLa", "assay": "Antiproliferative activity against human HeLa cells after 48 hrs by MTT assay", "assay_type": "functional, cell-based"}, "[26]": {"test_system": "MGC-803", "assay": "Antiproliferative activity against human MGC803 cells after 48 hrs by MTT assay", "assay_type": "functional, cell-based", "settings": "MGC-803, 48 h"}, "[27]": {"test_system": "HepG2", "assay": "Antiproliferative activity against human HepG2 cells after 48 hrs by MTT assay", "assay_type": "functional, cell-based", "settings": "HepG2, 48 h"}, "[28]": {"test_system": "MGC-803", "assay": "Cell cycle arrest in human MGC803 cells assessed as accumulation of cells at S phase at 20 uM after 24 hrs by propidium iodide staining-based flow cytometric analysis (reference value: 37.1%)", "assay_type": "functional"}, "[29]": {"test_system": "MGC-803", "assay": "Induction of apoptosis in human MGC803 cells assessed as late apoptotic cells at 20 uM after 24 hrs by Annexin V-FITC/propidium iodide staining-based flow cytometric analysis (reference value: 4.17%)", "assay_type": "functional"}, "[30]": {"test_system": "MGC-803", "assay": "Induction of apoptosis in human MGC803 cells assessed as necrotic cells at 20 uM after 24 hrs by Annexin V-FITC/propidium iodide staining-based flow cytometric analysis (reference value: 0.556%)", "assay_type": "functional"}, "[31]": {"test_system": "MGC-803", "assay": "Induction of apoptosis in human MGC803 cells assessed as necrotic cells at 30 uM after 24 hrs by Annexin V-FITC/propidium iodide staining-based flow cytometric analysis (reference value: 0.556%)", "assay_type": "functional"}, "[32]": {"test_system": "MGC-803", "assay": "Down regulation of HK2 expression levels in human MGC803 cells at 10 to 40 uM after 24 hrs by Western blot analysis", "assay_type": "functional, cell-based"}, "[33]": {"test_system": "MGC-803", "assay": "Effect on PFK expression levels in human MGC803 cells at 10 to 40 uM after 24 hrs by Western blot analysis", "assay_type": "functional, cell-based"}, "[34]": {"test_system": "MGC-803", "assay": "Cell cycle arrest in human MGC803 cells assessed as accumulation of cells at S phase at 60 uM after 24 hrs by propidium iodide staining-based flow cytometric analysis (reference value: 37.1%)", "assay_type": "functional"}},
  "note": "Calls of active or inactive are those of the source. No cut-off for these calls is given here.",
  "data": [
    {"smiles": "Cc1cccc(C(=O)NCCc2c[nH]c3ccc(Br)cc23)c1O", "values": [
      {"measurement": "Activity", "setting": "[1]", "value": 43, "unit": "%"},
      {"measurement": "Activity", "setting": "[2]", "value": 1.66, "unit": "%"},
      {"measurement": "IC50", "setting": "[3]", "value": 36, "unit": "µM"},
      {"measurement": "viability at 20 µM", "setting": "[4]", "value": 83, "unit": "%"},
      {"measurement": "Activity", "setting": "[5]", "value": 34.65, "unit": "%"},
      {"measurement": "IC50", "setting": "[6]", "value": 63, "unit": "µM"},
      {"measurement": "Activity", "setting": "[7]", "value": 0.25, "unit": "%"},
      {"measurement": "Activity", "setting": "[8]", "value": 52.98, "unit": "%"},
      {"measurement": "Activity", "setting": "[9]", "value": "inactive"},
      {"measurement": "Activity", "setting": "[10]", "value": "Dose-dependent effect"},
      {"measurement": "inhibition at 40 µM", "setting": "[11]", "value": 100, "unit": "%"},
      {"measurement": "Activity", "setting": "[12]", "value": 42.7, "unit": "%"},
      {"measurement": "viability at 30 µM", "setting": "[13]", "value": 41.3, "unit": "%"},
      {"measurement": "inhibition", "setting": "[14]", "value": "Dose-dependent effect"},
      {"measurement": "viability at 10 µM", "setting": "[15]", "value": 91.5, "unit": "%"},
      {"measurement": "Activity", "setting": "[16]", "value": 5.97, "unit": "%"},
      {"measurement": "Activity", "setting": "[17]", "value": 6.56, "unit": "%"},
      {"measurement": "Activity", "setting": "[18]", "value": 49.99, "unit": "%"},
      {"measurement": "Activity", "setting": "[19]", "value": 15.58, "unit": "%"},
      {"measurement": "Activity", "setting": "[20]", "value": 40.78, "unit": "%"},
      {"measurement": "Activity", "setting": "[21]", "value": "Dose-dependent effect"},
      {"measurement": "Activity", "setting": "[22]", "value": 15.4, "unit": "%"},
      {"measurement": "Activity", "setting": "[23]", "value": 27.01, "unit": "%"},
      {"measurement": "Activity", "setting": "[24]", "value": "Dose-dependent effect"},
      {"measurement": "IC50", "setting": "[25]", "value": 52, "unit": "µM"},
      {"measurement": "IC50", "setting": "[26]", "value": 29, "unit": "µM"},
      {"measurement": "IC50", "setting": "[27]", "value": 45, "unit": "µM"},
      {"measurement": "Activity", "setting": "[28]", "value": 21.11, "unit": "%"},
      {"measurement": "Activity", "setting": "[29]", "value": 9.67, "unit": "%"},
      {"measurement": "Activity", "setting": "[30]", "value": 1.37, "unit": "%"},
      {"measurement": "Activity", "setting": "[31]", "value": 0.587, "unit": "%"},
      {"measurement": "Activity", "setting": "[32]", "value": "Active"},
      {"measurement": "Activity", "setting": "[33]", "value": "inactive"},
      {"measurement": "Activity", "setting": "[34]", "value": 7.56, "unit": "%"}
    ]}
  ]
}
